Data set [1] is described as follows: Comparative human absorption cross-over study of CBD in compound of formula (IV) versus MCT oil. It is filed as in vivo. As to the method:
54 mg of cannabidiol (CBD) was dissolved in 2.5 g of compound of formula (IV) to give a clear solution. 1.16 g of the mixture (25 mg CBD) was encapsulated in two (2) hard gel capsules (size 00) for absorption study. A pilot absorption study was conducted in one volunteer. The two (2) hard gel capsules were swallowed with a glass of water by the volunteer fasted for 10 h. 200 ul of blood was collected by a lancet in a heparinised microtube at T=0, 1, 2, 3, 4, 5, 6, 7 and 8 h. The plasma was analyzed by HPLC/MS/MS to quantify the CBD. A comparative study was conducted with the same amount of CBD but with MCT oil (medium-chain triglycerides oil) instead of compound of formula (IV).

Data set [2] is described as follows: CBD solubility in carrier oils. It is filed as physicochemical. Particulars: for solubility: oil or lipid.
The conditions of data set [3]: 400 mg CBD in corn oil, orally administered; cited from earlier work.
A short description of data set [4]: Human absorption study of composition 1 (cannabinoid extract containing CBDA in compound of formula IV and EPA fish oil). Format: in vivo. The protocol: Cannabis dried flowers (7 g) was extracted with ethanol (100 ml) for 72 h at room temperature. The flowers was filtered and the ethanol was removed under vacuum without heating to give the cannabinoid crude extract (1.9 g) containing 85% CBDA and 4% THCA. The crude extract (315 mg) was dissolved in a mixture of compound of formula (IV) and EPA concentrated ethyl ester fish oil (3.5 g) to give composition 1.
2.47 g of composition 1 was encapsulated in four (4) hard gel capsules (size 00) for absorption study. A pilot absorption study was conducted in one volunteer. The four (4) hard gel capsules were swallowed with a glass of water by the volunteer fasted for 10 h. 200 ul of blood was collected by a lancet in a heparinised microtube at T=0, 0.5, 1, 1.5, 2, 2.5, 3, 3.5, 4, 4.5, and 6.5 h. The plasma was analyzed by HPLC/MS/MS to quantify the CBDA.

Data set [5] deals with T1, COX-2 (Homo sapiens, UniProt P35354).
T1 sequence (P35354 18-604): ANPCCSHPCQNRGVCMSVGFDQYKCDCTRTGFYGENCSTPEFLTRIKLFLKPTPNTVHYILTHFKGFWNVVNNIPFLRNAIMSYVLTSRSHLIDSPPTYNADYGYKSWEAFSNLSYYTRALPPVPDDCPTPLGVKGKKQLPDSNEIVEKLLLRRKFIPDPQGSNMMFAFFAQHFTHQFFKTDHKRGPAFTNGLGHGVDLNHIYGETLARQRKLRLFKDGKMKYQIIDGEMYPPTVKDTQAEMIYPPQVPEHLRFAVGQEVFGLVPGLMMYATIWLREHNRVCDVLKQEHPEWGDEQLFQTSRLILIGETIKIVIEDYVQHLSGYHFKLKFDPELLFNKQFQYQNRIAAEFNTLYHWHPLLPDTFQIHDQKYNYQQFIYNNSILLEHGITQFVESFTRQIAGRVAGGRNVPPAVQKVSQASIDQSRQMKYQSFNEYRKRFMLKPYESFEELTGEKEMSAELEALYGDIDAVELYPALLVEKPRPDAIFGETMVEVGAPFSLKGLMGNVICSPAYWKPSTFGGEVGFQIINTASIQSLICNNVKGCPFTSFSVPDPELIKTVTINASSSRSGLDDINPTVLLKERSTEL
The note with it: native acid form; cited from earlier work.

For data set [6] the following is noted: stated by Health Canada; cited from earlier work.
For data set [7] the following is noted: native acid form; cited from earlier work.

The structures appear in SMILES notation. Converted amounts (≈) assume the structure as drawn.

Take `C=C(C)[C@@H]1CCC(C)=C[C@H]1c1c(O)cc(CCCCC)cc1O` [CBD, Cannabidiol]: the “absorption and bioavailability of CBD, compound of formula (IV) over MCT oil” value in data set [1] (25 mg CBD oral in hard gel capsules, one volunteer fasted 10 h, plasma 0-8 h, FIG. 1) was “superiority”. The bioavailability in data set [1] (human, plasma, formulated in compound of formula IV, low dose of 25 mg, oral, read-out: CBD more bioavailable than in MCT oil) was 200%. In data set [2] (formulation containing compound of formula IV and EPA fish oil versus corn oil), this molecule returned an increase of solubility of 33%. Also, the solubility in data set [2] (in a formulation containing compound of formula IV and EPA fish oil) was 400 mg/mL (≈ 1270 mM); in data set [2] (in corn oil), approximately 300 mg/mL (≈ 954 mM). In addition, the Cmax in plasma in data set [3] was 181 ng/mL.
With `C=C(C)[C@@H]1CCC(C)=C[C@H]1c1c(O)cc(CCCCC)c(C(=O)O)c1O` [CBDA, Cannabidiolic Acid], in data set [4] (170 mg CBDA in compound of formula IV versus 400 mg CBD in corn oil (half of the dose)), the “increase of the Cmax” value worked out at 500%. Moreover, the highest level in data set [4] (human, plasma, cannabinoid extract containing 170 mg of CBDA in compound of formula IV, oral, one fasted volunteer) (Cmax) was 1000 ng/mL. Besides, the COX-2 inhibition result in data set [5] was “COX-2 inhibitor”.
Regarding `CCCCCc1cc(O)c2c(c1)OC(C)(C)[C@@H]1CCC(C)=C[C@@H]21` [THC, Tetrahydrocannabinol], in data set [6], the oral bioavailability was 10%.
For `CCCCCc1cc2c(c(O)c1C(=O)O)[C@@H]1C=C(C)CC[C@H]1C(C)(C)O2` [THCA, Tetrahydrocannabinolic acid], the psychotropic effect entry in data set [7] is given as “no psychotropic effect”.

The values are drawn from patent publication US12226390B2, “Cannabinoids compositions with polyunsaturated fatty acid monoglycerides, methods and uses thereof” (SCF PHARMA INC., priority 2019, dated 2025).
